The values that follow come from patent publication US20180200308A1, “METHODS OF TREATING COLITIS” (priority 2015, published 2018).

One experiment deals with DSS-induced colitis. The class given is in vivo. The protocol:
To further examine the effect of antibiotic and a BSC on ulcerative colitis, the DSS model described supra was used with the addition of arms evaluating vancomycin as the sole antibiotic. In this experiment, three-week-old male C57B1/6 mice, 15 per group (9 in the Naïve control group), were treated according to the Table 2.
Either vancomycin (Groups 5 and 6) or an antibiotic mixture (Groups 7 and 8) was administered to mice in their drinking water prior to receiving treatment to evaluate the effect on BSC efficacy. Mice were dosed by oral gavage with either PBS (Groups 2, 5, and 7) or BSC (Groups 6 and 8) three times per week starting on Day 9 and continuing through the end of the study (Day 38). Group 4 was dosed with a BSC three times per week starting on Day 0. On days 28-32, mice were exposed to 2% DSS in their drinking water (Groups 2-8) and observed until Day 38. Periodic measurements included body weight and clinical scores. On Day 38, animals were euthanized and features of the colon were evaluated including weight, length, and gross pathology. Colon samples were prepared for histopathology and scored by a pathologist blinded to treatment group and the nature of the Test Item.

The next experiment relates to TNBS-induced colitis. The experiment is described as follows: TNBS model of colitis with and without broad-spectrum antibiotic or vancomycin pretreatment (Example 5). The class given is in vivo, Balb/c mice. Here is the method:
Additional experiments were carried out using the TNBS model (described supra) using a BSC in combination with an antibiotic. In these experiments, three-week-old male Balb/c mice, 24 per group (9 in the naïve control group), were treated according to Table 4.
Either vancomycin (Groups 5 and 6) or an antibiotic mixture (Groups 7 and 8) was administered to mice in their drinking water prior to receiving treatment to evaluate the effect on BSC efficacy (Groups 5-8). Mice were dosed by oral gavage with either PBS (Groups 2, 5, and 7) or BSC (Groups 6 and 8) three times per week starting on Day 7 and continuing through the end of the study (Day 35). Mice in group 4 received BSC three times per week by oral gavage starting on Day 0. On day 28, mice were anesthetized with isoflurane and received intracolonic 2% TNBS (Groups 2-8). Periodic measurements included body weight and clinical scores. On Day 35, animals were euthanized and gross pathology was evaluated. Colon samples were prepared for histopathology and scored by a pathologist blinded to treatment group and the nature of the Test Item.

Setting [1] is: vs Negative Control (Group 2), Day 38.

Regarding `CN[C@H](CC(C)C)C(=O)N[C@H]1C(=O)N[C@@H](CC(N)=O)C(=O)N[C@H]2C(=O)N[C@H]3C(=O)N[C@H](C(=O)N[C@H](C(=O)O)c4cc(O)cc(O)c4-c4cc3ccc4O)[C@H](O)c3ccc(c(Cl)c3)Oc3cc2cc(c3O[C@@H]2O[C@H](CO)[C@@H](O)[C@H](O)[C@H]2O[C@H]2C[C@](C)(N)[C@H](O)[C@H](C)O2)Oc2ccc(cc2Cl)[C@H]1O` [Vancomycin, vancomycin], the “colon pathology (gross pathology and histopathology scores)” value in the experiment on DSS-induced colitis (compared to naïve mice) is listed as “worsening in colon pathology”. The “protection against DSS-induced disease / pathology” value in the experiment with DSS-induced colitis (vs Negative Control) is given as “significant protection”. Besides, in the experiment with DSS-induced colitis (vs Negative Control (Group 2)), the clinical score entry is “reduced clinical scores”, the “colon pathology (overall)” value is “overall improvement in colon pathology”, the colon weight result is listed as “reduced colon weight” and the “maximal body weight loss / body weight loss (in words)” value is “significantly reduced”. For the same molecule, in the experiment on DSS-induced colitis (setting [1]), the colon length entry is “increased colon length”, the gross pathology score result is listed as “improved” and the histopathology score result is listed as “improved”. Besides, in the experiment with TNBS-induced colitis (antibiotic pretreatment alone), the “protection against weight loss” value is recorded as “no effect”. Also, the “dead or euthanized / group size” value in the experiment on TNBS-induced colitis (following TNBS induction, Positive Control = anti-IL12) is 2/24. Also, the Mortality with TNBS-induced colitis (following TNBS induction, Positive Control = anti-IL12, Negative Control 33%) was 8%. In addition, the histopathology scores entry with TNBS-induced colitis (vs Negative Control Group 2, BSC p=0.14) is given as “not different”. The clinical scores result with TNBS-induced colitis (vs Negative Control Group 2, Positive Control = anti-IL12) is recorded as “not statistically improved”.
